{"source": "patent US11135202B2", "about": "“Thiazolide compounds for treating viral infections” (Romark Laboratories L.C., priority 2016, dated 2021)", "key": {"[1]": {"tested_on": "Sendai virus (SeV)", "assay_type": "cell-based"}, "[2]": {"tested_on": "respiratory syncytial virus", "test": "Study RM08-3002 clinical trial, time to alleviation of symptoms, RSV patients", "settings": "human, in vivo"}, "[3]": {"tested_on": "RSV-A2", "test": "RSV-A2 yield in infected HeLa cells (virus-induced syncytia counted by immunofluorescence)", "assay_type": "cell-based"}, "[4]": {"tested_on": "Sendai virus (SeV)", "test": "SeV virus yield in AGMK cells (HA titration, plaque assay; MTT viability; cytopathic effect)", "assay_type": "cell-based"}}, "data": [{"smiles": "CC(=O)Oc1ccccc1C(=O)Nc1ncc([N+](=O)[O-])s1", "note": "[nitazoxanide]", "values": [{"measurement": "inhibition of SeV in A549 cells", "setting": "[1]", "value": "also effective"}, {"measurement": "reduction in duration of symptoms at the median vs placebo", "setting": "[2]", "value": 76, "unit": "h"}, {"measurement": "IC50", "setting": "[3]; human respiratory syncytial virus, HeLa cells, MOI 1 TCID50/cell, syncytia at 48 hours p.i., non cytotoxic doses, read-out: IC50, antiviral activity against RSV-A2", "value": 0.3, "unit": "µg/mL"}, {"measurement": "IC90", "setting": "[3]; human respiratory syncytial virus, HeLa cells, MOI 1 TCID50/cell, syncytia at 48 hours p.i., non cytotoxic doses, read-out: IC90, antiviral activity against RSV-A2", "value": 0.8, "unit": "µg/mL"}, {"measurement": "effect of treatment against RSV", "setting": "[3]; in vitro", "value": "effective against RSV"}, {"measurement": "protection of infected cells from virus-induced damage", "setting": "[4]; SeV 3 PFU/cell, 10 μg/ml, 24 h p.i.", "value": "cytoprotective"}, {"measurement": "inhibition of SeV replication", "setting": "[4]; at concentrations non-toxic for the host cells", "value": "effective"}]}]}
